Holding throughout (test): NCI anticancer screen, dose series, 48 h
The subject of experiment [1] is LOX IMVI melanoma.
Experiment [2] has as its system SK-MEL-2 melanoma.
The subject of experiment [3] is SK-MEL-5 melanoma.
The test system of experiment [4] is SF-268 CNS.
Experiment [5] relates to RPMI-8226 leukemia.
Experiment [6] relates to SF-539 CNS.
Experiment [7] concerns M14 melanoma.
In experiment [8] the test system is PC-3 prostate.
Experiment [9] has as its system MALME-3M melanoma.
For experiment [10], the system named is HOP-62 NSCLC.

Molecules are shown by their SMILES.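 48-hour exposure; five concentrations; linearly interpolated endpoints. GI50 is the concentration that inhibits growth by half. TGI marks complete inhibition of growth.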

On to `CC/C=C\C[C@H](O)C/C=C1/C(=O)C=C[C@@H]1C/C=C\CCCC(=O)OC`, for which the GI50 in experiment [1] was 237 nM; in experiment [2], 1840 nM; in experiment [3], 1540 nM; in experiment [4], 2560 nM; in experiment [5] it was 1000 nM; in [6], 2750 nM. Further, the GI50 in [7] is 1320 nM; in [8] it was 2700 nM; in [9] it was 2140 nM; in experiment [10] it was 1480 nM. The TGI is 609 nM in experiment [1]; 4200 nM in experiment [2]; 2910 nM in experiment [3]; 11800 nM in [4]; 9210 nM in [5]; 7330 nM in experiment [6]. The TGI in [7] turned out to be 4720 nM; in [8], 7290 nM; in experiment [9] it was 6240 nM; in experiment [10], 5150 nM.
